Experimental data published in the supplement of paper PMC4862054.

What was measured:
Details in all cases: incubation time: 72 h
BT-474 [1] = test: normalised response (% of control), CellTox Green; higher = less cell death (100 = DMSO, 0 = benzethonium chloride kill control)
How it was run: (§1)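 Every value is a normalised signal taken at one concentration of a dilution series. Compound was placed in 384-well plates at 5 concentrations in 10-fold steps over a compound-specific 10,000-fold range, and 20 µl of breast cancer cell suspension was seeded onto it. After 72 h, CellTox Green fluorescence (485/520 nm) was measured first and CellTiter-Glo luminescence second, following 10 min at room temperature. Each plate was scaled to 0.1 % DMSO (100) and a positive kill control (0).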

BT-549 [2] = test: as above
How it was run: as §1

CAL-120 [3] = test: as above
How it was run: as §1

CAL-148 [4] = test: as above
How it was run: as §1

CAL-51 [5] = test: as above
How it was run: as §1

CAL-85-1 [6] = test: as above
How it was run: as §1

DU-4475 [7] = test: as above
How it was run: as §1

HCC1143 [8] = test: as above
How it was run: as §1

HCC1599 [9] = test: as above
How it was run: as §1

HCC1937 [10] = test: as above
How it was run: as §1

HDQ-P1 [11] = test: as above
How it was run: as §1

Hs578T [12] = test: as above
How it was run: as §1

MCF-10A [13] = test: as above
How it was run: as §1

MDA-MB-231 [14] = test: as above
How it was run: as §1

MDA-MB-436 [15] = test: as above
How it was run: as §1

MDA-MB-453 [16] = test: as above
How it was run: as §1

MDA-MB-468 [17] = test: as above
How it was run: as §1

MFM-223 [18] = test: as above
How it was run: as §1

BT-474 [19] = test: normalised response (% of control), CellTiter-Glo; higher = more viable cells (100 = DMSO, 0 = benzethonium chloride kill control)
How it was run: as §1

BT-549 [20] = test: as above
How it was run: as §1

CAL-120 [21] = test: as above
How it was run: as §1

CAL-148 [22] = test: as above
How it was run: as §1

CAL-51 [23] = test: as above
How it was run: as §1

CAL-85-1 [24] = test: as above
How it was run: as §1

DU-4475 [25] = test: as above
How it was run: as §1

HCC1143 [26] = test: as above
How it was run: as §1

HCC1599 [27] = test: as above
How it was run: as §1

HCC1937 [28] = test: as above
How it was run: as §1

HDQ-P1 [29] = test: as above
How it was run: as §1

Hs578T [30] = test: as above
How it was run: as §1

MCF-10A [31] = test: as above
How it was run: as §1

MDA-MB-231 [32] = test: as above
How it was run: as §1

MDA-MB-436 [33] = test: as above
How it was run: as §1

MDA-MB-453 [34] = test: as above
How it was run: as §1

MDA-MB-468 [35] = test: as above
How it was run: as §1

MFM-223 [36] = test: as above
How it was run: as §1

SK-BR-3 = test: as above
How it was run: as §1

| Compound | normalised response (BT-474 [1]) | normalised response (BT-549 [2]) | normalised response (CAL-120 [3]) | normalised response (CAL-148 [4]) | normalised response (CAL-51 [5]) | normalised response (CAL-85-1 [6]) | normalised response (DU-4475 [7]) | normalised response (HCC1143 [8]) | normalised response (HCC1599 [9]) | normalised response (HCC1937 [10]) | normalised response (HDQ-P1 [11]) | normalised response (Hs578T [12]) | normalised response (MCF-10A [13]) | normalised response (MDA-MB-231 [14]) | normalised response (MDA-MB-436 [15]) | normalised response (MDA-MB-453 [16]) | normalised response (MDA-MB-468 [17]) | normalised response (MFM-223 [18]) | normalised response (BT-474 [19]) | normalised response (BT-549 [20]) | normalised response (CAL-120 [21]) | normalised response (CAL-148 [22]) | normalised response (CAL-51 [23]) | normalised response (CAL-85-1 [24]) | normalised response (DU-4475 [25]) | normalised response (HCC1143 [26]) | normalised response (HCC1599 [27]) | normalised response (HCC1937 [28]) | normalised response (HDQ-P1 [29]) | normalised response (Hs578T [30]) | normalised response (MCF-10A [31]) | normalised response (MDA-MB-231 [32]) | normalised response (MDA-MB-436 [33]) | normalised response (MDA-MB-453 [34]) | normalised response (MDA-MB-468 [35]) | normalised response (MFM-223 [36]) | normalised response (SK-BR-3) |
| --- | --- | --- | --- | --- | --- | --- | --- | --- | --- | --- | --- | --- | --- | --- | --- | --- | --- | --- | --- | --- | --- | --- | --- | --- | --- | --- | --- | --- | --- | --- | --- | --- | --- | --- | --- | --- | --- |
| O=C(O)C1(C(=O)O)CCC1.[NH2-].[NH2-].[Pt+2] [Carboplatin] (1000 nM) | 97.7% | 62% | 104% | 105% | 106% | 117% | 107% | 101% | 104% | 113% | 100% | 103% | 115% | 106% | 95.4% | 111% | 143% | 89.6% | 100% | 94.2% | 95.3% | 96.5% | 108% | 95.7% | 93.9% | 101% | 96.4% | 95% | 95.4% | 95.1% | 105% | 94.4% | 98.3% | 97.6% | 100% | 101% | 103% |
| O=C(/C=C/c1cccnc1)NCCCCC1CCN(C(=O)c2ccccc2)CC1 [Daporinad] (100 nM) | 98.6% | 105% | 91.2% | 95% | 105% | 101% | 98.8% | 104% | 78.1% | 27.6% | 103% | 20% | 98.1% | 112% | 103% | 104% | 125% | 70.9% | 28.7% | 100% | 17% | 69% | 102% | 16% | 4.65% | 14.3% | 0.54% | 21.3% | 19.1% | 8.08% | 11.1% | 25.8% | 54% | 14.3% | 0.85% | 4.38% | 107% |
| O=C(Cc1ccc(-c2ccc(OCCN3CCOCC3)cc2)cn1)NCc1ccccc1 [KX2-391] (1000 nM) | 80.8% | 76.7% | 90.4% | 74.2% | 30.9% | 68.1% | 101% | 113% | 71.9% | 115% | 99.8% | 38.4% | 38.9% | -59.4% | 83.1% | 49.9% | 23.4% | 44.2% | 52.5% | 43.6% | 59.4% | 41.4% | 19.3% | 45.3% | 45.6% | 61.5% | 14.8% | 72.8% | 70.8% | 19.7% | 75.2% | 46.6% | 25.2% | 72% | 33.4% | 44.9% | 14.9% |
| N#Cc1ccc(C(c2ccc(C#N)cc2)n2cncn2)cc1 [Letrozole] (1000 nM) | 100% | 89.6% | 103% | 101% | 98.2% | 105% | 100% | 101% | 85.3% | 67.6% | 102% | 106% | 114% | 98.9% | 87.6% | 96.4% | 75.9% | 88.4% | 94.4% | 103% | 99% | 94.7% | 80.8% | 98.8% | 98.8% | 108% | 104% | 103% | 102% | 97.1% | 101% | 96.5% | 105% | 99.3% | 103% | 100% | 99.5% |
| C=CCc1cccc(/C=N/NC(=O)CN2CCN(Cc3ccccc3)CC2)c1O [PAC-1] (1000 nM) | 98.8% | 61.6% | 102% | 104% | 73.1% | 105% | 101% | 119% | 98.4% | 92.5% | 112% | 104% | 112% | 107% | 89.7% | 106% | 128% | 102% | 97.9% | 75.1% | 97.5% | 101% | 67.2% | 98.5% | 102% | 103% | 120% | 92.7% | 93.3% | 103% | 116% | 96.8% | 86% | 93.6% | 101% | 100% | 109% |
| Nc1nc2[nH]cc(CCc3ccc(C(=O)N[C@@H](CCC(=O)O)C(=O)O)cc3)c2c(=O)[nH]1 [Pemetrexed] (1000 nM) | 99.5% | 82.9% | 100% | 89.9% | 98.2% | 105% | 98.2% | 115% | 92% | 112% | 110% | 101% | 103% | 88% | 108% | 106% | 122% | 103% | 54.4% | 97.1% | 88.1% | 95.7% | 90.6% | 54.5% | 89.5% | 93.3% | 67.4% | 70.3% | 83.2% | 17.1% | 97.6% | 65.6% | 80.7% | 92.2% | 90% | 91.5% | 68.2% |
| CC[C@H](C)C(=O)O[C@H]1C[C@H](O)C=C2C=C[C@H](C)[C@H](CC[C@@H](O)C[C@@H](O)CC(=O)O)[C@H]21 [Pravastatin] (1000 nM) | 99.3% | 85.2% | 100% | 99.8% | 87.6% | 93.4% | 99% | 59% | 95.4% | 95.4% | 112% | 95.2% | 108% | 85.4% | -66.6% | 105% | 134% | 98.5% | 85.8% | 96.3% | 95.3% | 87.6% | 54.5% | 95.5% | 82.1% | 94.3% | 70.8% | 86.9% | 92.2% | 98.4% | 96.1% | 89.9% | 18.9% | 87.7% | 89.9% | 85.5% | 86.2% |
| COc1cc([C@@H]2c3cc4c(cc3[C@@H](O[C@@H]3O[C@@H]5CO[C@@H](c6cccs6)O[C@H]5[C@H](O)[C@H]3O)[C@H]3COC(=O)[C@H]23)OCO4)cc(OC)c1O [Teniposide] (1000 nM) | 99.1% | 78.4% | 88.1% | 21.2% | 51.4% | 91% | 75% | -28.9% | 75.5% | 92.2% | 102% | 98.2% | 75.1% | 61.2% | 90.5% | 111% | 94.5% | 69.6% | 47.6% | 36.5% | 72.4% | 33.3% | 47.8% | 55.3% | 17.3% | 47.8% | 19.6% | 72.4% | 84.1% | 76.3% | 82.8% | 66% | 36.6% | 160% | 41.9% | 82.4% | 19.1% |
| COc1cc2nccc(Oc3ccc(NC(=O)Nc4cc(C)on4)c(Cl)c3)c2cc1OC [Tivozanib] (1000 nM) | 101% | 129% | 96.6% | 104% | 87.7% | 95.5% | 96.5% | 89.3% | 104% | 134% | 92.8% | 93% | 105% | 110% | 70.6% | – | 138% | 102% | 81.3% | 111% | 93.1% | 103% | 90.8% | 103% | 101% | 95.9% | 92.9% | 95.2% | 98.6% | 104% | 99.2% | 89% | 101% | 87.7% | 89.5% | 60.3% | 88.5% |
